“Also recorded” adds a separate entry of the source. Read-outs that look alike come from different tables or passages of the source.
Legend:
[1] = biological target: T1, purified recombinant human IPMK kinase domain (Homo sapiens, UniProt Q8NFU5); assay: IPMK IC50 determination, Kinase-Glo assay; type: biochemical
T1 sequence (Q8NFU5 with tags, fused parts or gaps): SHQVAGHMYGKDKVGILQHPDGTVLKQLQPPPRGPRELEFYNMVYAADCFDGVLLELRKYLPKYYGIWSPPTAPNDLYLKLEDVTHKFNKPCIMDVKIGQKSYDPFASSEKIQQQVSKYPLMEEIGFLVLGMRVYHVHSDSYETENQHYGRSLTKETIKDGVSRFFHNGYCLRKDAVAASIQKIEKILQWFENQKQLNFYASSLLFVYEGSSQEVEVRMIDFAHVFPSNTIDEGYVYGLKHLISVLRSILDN
Description: (§1) These assay conditions were optimized with respect to reaction time, IPMK enzyme concentration, and IP3 concentration to determine the IC50 values for these ATP-competitive compounds.

[2] = test system: purified recombinant human IPMK kinase domain; assay: IPMK IC50 determination, Kinase-Glo assay; type: biochemical
Description: as §1

S6Kb = assay: Protein kinase profiling, Mobility Shift Assay (Carna Biosciences); type: biochemical, human
Method: Protein kinase profiling of compound 14 was executed by Carna Biosciences. Briefly, compound 14 was prepared by dissolving it in dimethyl sulfoxide (DMSO) and then further diluting it in DMSO to a concentration of 25 μM. That stock solution was further diluted 25-fold with kinase assay buffer (20 mM HEPES, 0.01% Triton X-100, 2 mM DTT, pH 7.5) to make the final 1 μM compound 14 solution. Reference compounds for the assay controls were prepared similarly. The off-chip Mobility Shift Assay (MSA) was prepared with 5 μL of 4× compound solution, 5 μL of 4× substrate/ATP/metal solution, and 10 μL of 2× kinase solution, prepared with assay buffer (20 mM HEPES, 0.01% Triton X-100, 2 mM DTT, pH 7.5). The components were mixed and incubated in a polypropylene 384-well microplate for 1 h or 5 h at room temperature, depending on the kinase being tested. […]

[3] = biological target: T2, purified recombinant human IP6K2 kinase domain (Homo sapiens, UniProt Q9UHH9); assay: IP6K2 IC50 determination, malachite green Pi release assay; type: biochemical
T2 sequence (Q9UHH9 1-426): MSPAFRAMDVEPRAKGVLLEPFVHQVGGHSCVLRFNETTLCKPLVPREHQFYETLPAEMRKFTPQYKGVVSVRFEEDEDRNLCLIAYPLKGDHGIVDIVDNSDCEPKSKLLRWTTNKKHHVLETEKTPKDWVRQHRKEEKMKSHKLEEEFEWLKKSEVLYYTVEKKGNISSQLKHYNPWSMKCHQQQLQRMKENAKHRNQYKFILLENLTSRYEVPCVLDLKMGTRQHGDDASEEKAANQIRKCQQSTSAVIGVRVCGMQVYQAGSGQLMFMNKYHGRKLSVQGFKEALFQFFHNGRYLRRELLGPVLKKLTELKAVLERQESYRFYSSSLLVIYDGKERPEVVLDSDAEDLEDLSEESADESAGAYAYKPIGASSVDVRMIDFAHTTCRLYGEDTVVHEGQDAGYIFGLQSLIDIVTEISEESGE
Method: IP6K2 IC50 values were determined using the purified recombinant human IP6K2 kinase domain expressed in a 384-well clear polystyrene plate (VWR 82051-264). This human IP6K2 kinase domain (100 nM) was used at 37 °C in 50 μL reaction mixtures containing 5.0 μM human Dipp1, 50 mM Tris (pH 6.9), 10 mM MgCl2, 0.02% Triton X-100, 25 μM InsP6, and 50 μM ATP for 30 min. Pi release was determined with a malachite green colorimetric assay. Reactions were quenched by the addition of 12.5 μL of phosphate detection reagent (MAK3071KT, Sigma-Aldrich). Pi release was quantified from the absorbance at 620 nm by using appropriate standards.

[4] = test system: inositol phosphate levels in U251-MG cells; assay: 3H-inositol metabolic labeling and HPLC of inositol phosphates; type: cell-based, human; details: 10 μM, vs DMSO
Method: Human U251-MG glioblastoma cells (ECACC 09063001) were grown in DMEM supplemented with 10% FBS. The medium was changed to inositol-free DMEM, and cells were inositol-starved for 1–3 days. Cells were maintained in inositol-free DMEM medium, treated with the indicated inhibitor or DMSO for 1–2.5 h, and supplemented with 100 μCi ^3H-inositol (PerkinElmer) for 48 or 72 h, as indicated on each figure. Cells were then washed in PBS and lysed in 200 μL HCl (0.5 M), 250 μL of MeOH was added to each well of a 6-well plate (approximately 10^6 cells), followed by 125 μL of 2 M KCl. Lysates were scraped and sonicated on ice for three 1 min cycles. Inositol phosphate (IP) extracts were cleaned of lipids by adding 250 μL of CHCl3, vortexing and centrifuging samples for 2 min at 5000 rpm to separate upper aqueous and lower organic phases, upper phase contains soluble IPs. This extraction was repeated once. Samples were dried in a SpeedVac, resuspended in 10 mM ammonium phosphate (pH= 3.5), and filtered. HPLC separation and detection of the inositol species on the upper phase used a Partisphere SAX 4.6 mm × 250 mm column, eluted with 10 mM (buffer A) to 1.3 M (buffer B) ammonium phosphate (pH = 3.8) and online flow scintillation analyzer (FSA, PerkinElmer). Elution of [^32P]-labeled IP4, IP5, and IP6 standards confirmed the identity of each peak off the HPLC. Quantification represents three biologically independent metabolic labeling samples with error representing the standard deviation of the mean.

- IC50 ([1]; Kinase-Glo assay, 12.5 μM Ins(1,4,5)P3, 10 μM ATP, read-out: IC50 toward recombinant human IPMK): 32 ± 2.4 nM
- IC50 ([1]; supplementary csv, read-out: IPMK IC50): 31.6 ± 2.4 nM
- concentration of maximum IPMK inhibition [2]: 100 nM
- % Inhibition at 1.0 μM 14 (S6Kb): 9.4%
- IP6K2/IPMK ([3]; Table S1, ratio of IC50 values): 12
- selectivity for IPMK over IP6K2 ([3]; from Table S1): 12 fold
- IC50 ([3]; supplementary csv): 374 ± 159 nM
SMILES: c1cc(-c2onc3ccc(-c4nnn[nH]4)cc23)cc(C2CCN(C3CCC3)CC2)c1 [Compound 14, 3-(3-(1-Cyclobutylpiperidin-4-yl)phenyl)-5-(1H-tetrazol-5-yl)benzo[c]isoxazole]
- decrease of InsP5 levels ([4]; 48 h): 50%
- increase of InsP4 levels ([4]; 48 h): about 50%
- level of InsP6 ([4]; 48 h): no change
- IP6 levels ([4]; 72 h): did not change; also recorded: does not decrease
- InsP4 levels ([4]; 72 h): rose slightly
- InsP7 levels ([4]; 72 h): did not change; also recorded: does not decrease
